# What was measured:
# [1] = target: T1, CYP2E1 (Homo sapiens, UniProt P05181); assay: CYP2E1 inhibition in pooled human liver microsomes (chlorzoxazone 6-hydroxylation); format: in vitro ADME; conditions: human, pooled human liver microsomes, pH 7.4, probe chlorzoxazone (6-hydroxylation); HLMs, 0-100 μM anemarsaponin BII
# T1 construct: marker reactions with specific substrates in human liver microsomes (HLMs); from tissue; host or cells: pooled human liver microsomes
# Method: (§1) The activity of CYP450s was evaluated by the marker reactions with specific substrates in human liver microsomes (HLMs). The reaction conditions are summarized in Table 1 according to previous studies. The concentration of anemarsaponin BII was 100 μM with the following concentration of specific inhibitors: 10 μM furafylline for CYP1A2, 10 μM tranylcypromine for CYP2A6, 1 μM ketoconazole for CYP3A4, 5 μM montelukast for CYP2C8, 10 μM sulfaphenazole for CYP2C9, 50 μM tranylcypromine for CYP2C19, 10 μM quinidine for CYP2D6, 50 μM clomethiazole for CYP2E1. 200 μL incubation system included 100 mM potassium phosphate buffer (pH 7.4), NADPH generating system (1 mM NADP^+, 10 mM glucose-6-phosphate, 1 U/mL of glucose-6-phosphate dehydrogenase, and 4 mM MgCl2), the appropriate concentration of HLMs, a corresponding probe substrate and anemarsaponin BII (or positive inhibitor for different probe reactions). The HADPH-generating system was added before the incubation to preincubate for 3 min at 37 °C. The reaction was terminated with 100 μL acetonitrile (10% trichloroacetic acid for CYP2A6). Then, the mixture was centrifuged at 12,000 rpm for 10 min, and an aliquot (50 μL) of supernatant was transferred for HPLC analysis with the help of the Agilent 1260 series instrument with DAD and FLD detector according to previous studies. The HPLC conditions for analysis of corresponding metabolites of CYP isoforms are summarized in Table 2 based on previous studies (Lang et al. [2017]; Zhang et al. [2017]).
# Incubations were performed in triplicate, and results were represented with the mean value. The final microsomal protein concentration and incubation times for the different probe reactions are summarized in Table 1 based on previous studies (Lang et al. [2017]; Wang et al. [2019]).
# The effect of anemarsaponin BII on the activity of CYPs was evaluated in pooled human liver microsomes according to previous studies (Dong et al. [2018]; Wang et al. [2019]). The residual activity of eight CYP isoforms was first detected with 100 μM anemarsaponin BII in HLMs. Next, CYPs of which the activity was inhibited by anemarsaponin BII was incubated with 0, 2.5, 5, 10, 25, 50 and 100 μM anemarsaponin BII to explore the values of half inhibition concentration (IC50). Additionally, 0–50 μM anemarsaponin BII was incubated with various concentration of probe substrates (20–100 μM testosterone for CYP3A4, 10–50 μM dextromethorphan for CYP2D6, and 25–250 μM chlorzoxazone for CYP2E1) to obtain the values of KI.
# The enzyme kinetic parameters for the probe reaction were estimated from the best fit line, using least-squares linear regression of the inverse substrate concentration versus the inverse velocity (Lineweaver–Burk plots), and the mean values were used to calculate Vmax and Km. Inhibition data from the experiments that were conducted using multiple compound concentrations were represented by Dixon plots, and inhibition constant (KI) values were calculated using non-linear regression according to the following equation: Competitive inhibition:v=(VmaxS)/(Km(1+I/KI)+S), Non-competitive inhibition:v=(VmaxS)/[Km+S(1+I/KIKi)] where I is the concentration of the compound, KI is the inhibition constant, S is the concentration of the substrate, and Km is the substrate concentration at half the maximum velocity (Vmax) of the reaction. The mechanism of the inhibition was inspected using the Lineweaver–Burk plots and the enzyme inhibition models. […]
# [2] = target: T2, CYP3A4 (Homo sapiens, UniProt P08684); assay: Time-dependent inhibition of CYP3A4 in HLMs; format: in vitro ADME
# T2 construct: marker reactions with specific substrates in human liver microsomes (HLMs); from tissue; host or cells: pooled human liver microsomes
# T2 sequence (P08684 whole entry): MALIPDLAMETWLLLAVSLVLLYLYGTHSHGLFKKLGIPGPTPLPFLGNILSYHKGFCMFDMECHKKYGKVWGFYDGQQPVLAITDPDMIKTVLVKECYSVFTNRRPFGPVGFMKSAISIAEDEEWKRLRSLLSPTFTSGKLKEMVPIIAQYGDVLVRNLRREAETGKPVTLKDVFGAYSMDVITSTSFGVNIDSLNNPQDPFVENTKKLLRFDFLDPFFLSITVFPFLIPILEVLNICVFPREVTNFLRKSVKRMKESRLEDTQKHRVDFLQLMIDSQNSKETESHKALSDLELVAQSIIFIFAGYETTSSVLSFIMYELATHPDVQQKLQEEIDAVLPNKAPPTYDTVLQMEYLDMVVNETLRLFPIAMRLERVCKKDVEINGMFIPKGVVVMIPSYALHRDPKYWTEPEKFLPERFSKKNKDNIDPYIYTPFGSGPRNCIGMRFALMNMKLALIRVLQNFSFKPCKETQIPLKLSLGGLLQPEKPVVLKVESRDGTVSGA
# Method: (§2) The effect of incubation time on the inhibition of anemarsaponin BII was evaluated with 20 μM anemarsaponin BII. HLMs were preincubated with anemarsaponin BII and the NADPH-generating system for 30 min at 37 °C. Then, an aliquot (20 μL) was transferred to another incubation tube (final volume 200 μL) containing an NADPH-generating system and probe substrates, of which final concentrations were approximate to Km. After incubating for 0, 5, 10, 15 and 30 min, the reaction was terminated with 100 μL acetonitrile internal standard mix and placed on ice. The metabolites were analyzed by HPLC. To obtain the values of KI and Kinact, another incubation with a higher concentration of substrates (approximately 4-fold Km values) was performed in the presence of 0–50 μM anemarsaponin BII for 0, 5, 10, 15 and 30 min.
# [3] = target: T3, CYP2D6 (Homo sapiens, UniProt P10635); assay: Time-dependent inhibition of CYP2D6 in HLMs; format: in vitro ADME; conditions: 20 μM anemarsaponin BII, data not shown
# T3 construct: marker reactions with specific substrates in human liver microsomes (HLMs); from tissue; host or cells: pooled human liver microsomes
# T3 sequence (P10635 whole entry): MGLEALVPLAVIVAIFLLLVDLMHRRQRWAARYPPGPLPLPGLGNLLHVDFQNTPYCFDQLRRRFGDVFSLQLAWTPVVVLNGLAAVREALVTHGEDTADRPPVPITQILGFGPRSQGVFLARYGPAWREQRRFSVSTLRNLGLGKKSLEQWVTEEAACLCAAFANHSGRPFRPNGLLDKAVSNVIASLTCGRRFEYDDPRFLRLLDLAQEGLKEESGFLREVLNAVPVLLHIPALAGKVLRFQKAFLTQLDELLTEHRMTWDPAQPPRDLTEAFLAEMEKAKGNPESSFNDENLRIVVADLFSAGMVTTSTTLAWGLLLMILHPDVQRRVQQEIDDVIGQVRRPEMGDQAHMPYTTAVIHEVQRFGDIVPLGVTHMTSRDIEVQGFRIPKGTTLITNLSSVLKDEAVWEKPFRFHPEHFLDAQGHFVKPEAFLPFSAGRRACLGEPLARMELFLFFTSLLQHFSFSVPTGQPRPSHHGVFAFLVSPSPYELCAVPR
# Method: as §2
# [4] = target: T1, CYP2E1; assay: Time-dependent inhibition of CYP2E1 in HLMs; format: in vitro ADME; conditions: 20 μM anemarsaponin BII, data not shown
# Method: as §2
# [5] = tested on: T4, CYP1A2; format: in vitro ADME; conditions: human, microsomes, 100 μM, pH 7.4
# T4 construct: marker reactions with specific substrates in human liver microsomes (HLMs); from tissue; host or cells: pooled human liver microsomes
# Method: as §1, with “[2017]). Incubations were performed in triplicate, and results were represented with the mean value. The final microsomal protein concentration and incubation times for the different probe reactions are summarized in Table 1 based on previous studies (Lang et al. [2017]; Wang et al. [2019]). The effect of anemarsaponin BII on the activity of CYPs was evaluated in pooled human liver microsomes according to previous studies (Dong et al. [2018]; Wang et al. [2019]). The residual activity of eight CYP isoforms was first detected with 100 μM anemarsaponin BII in HLMs. Next, CYPs of which the activity was inhibited by anemarsaponin BII was incubated with 0, 2.5, 5, 10, 25, 50 and 100 μM anemarsaponin BII to explore the values of half inhibition concentration (IC50). Additionally, 0–50 μM anemarsaponin BII was incubated with various concentration of probe substrates (20–100 μM testosterone for CYP3A4, 10–50 μM dextromethorphan for CYP2D6, and 25–250 μM chlorzoxazone for CYP2E1) to obtain the values of KI.” for “[2017]).”
# [6] = tested on: T5, CYP2A6; format: in vitro ADME; conditions: human, microsomes, 100 μM, pH 7.4
# T5 construct: marker reactions with specific substrates in human liver microsomes (HLMs); from tissue; host or cells: pooled human liver microsomes
# Method: as §1, with “[2017]). Incubations were performed in triplicate, and results were represented with the mean value. The final microsomal protein concentration and incubation times for the different probe reactions are summarized in Table 1 based on previous studies (Lang et al. [2017]; Wang et al. [2019]). The effect of anemarsaponin BII on the activity of CYPs was evaluated in pooled human liver microsomes according to previous studies (Dong et al. [2018]; Wang et al. [2019]). The residual activity of eight CYP isoforms was first detected with 100 μM anemarsaponin BII in HLMs. Next, CYPs of which the activity was inhibited by anemarsaponin BII was incubated with 0, 2.5, 5, 10, 25, 50 and 100 μM anemarsaponin BII to explore the values of half inhibition concentration (IC50). Additionally, 0–50 μM anemarsaponin BII was incubated with various concentration of probe substrates (20–100 μM testosterone for CYP3A4, 10–50 μM dextromethorphan for CYP2D6, and 25–250 μM chlorzoxazone for CYP2E1) to obtain the values of KI.” for “[2017]).”
# [7] = tested on: T6, CYP2C19; format: in vitro ADME; conditions: human, microsomes, 100 μM, pH 7.4
# T6 construct: marker reactions with specific substrates in human liver microsomes (HLMs); from tissue; host or cells: pooled human liver microsomes
# Method: as §1, with “[2017]). Incubations were performed in triplicate, and results were represented with the mean value. The final microsomal protein concentration and incubation times for the different probe reactions are summarized in Table 1 based on previous studies (Lang et al. [2017]; Wang et al. [2019]). The effect of anemarsaponin BII on the activity of CYPs was evaluated in pooled human liver microsomes according to previous studies (Dong et al. [2018]; Wang et al. [2019]). The residual activity of eight CYP isoforms was first detected with 100 μM anemarsaponin BII in HLMs. Next, CYPs of which the activity was inhibited by anemarsaponin BII was incubated with 0, 2.5, 5, 10, 25, 50 and 100 μM anemarsaponin BII to explore the values of half inhibition concentration (IC50). Additionally, 0–50 μM anemarsaponin BII was incubated with various concentration of probe substrates (20–100 μM testosterone for CYP3A4, 10–50 μM dextromethorphan for CYP2D6, and 25–250 μM chlorzoxazone for CYP2E1) to obtain the values of KI.” for “[2017]).”
# [8] = tested on: T7, CYP2C8; format: in vitro ADME; conditions: human, microsomes, 100 μM, pH 7.4
# T7 construct: marker reactions with specific substrates in human liver microsomes (HLMs); from tissue; host or cells: pooled human liver microsomes
# Method: as §1, with “[2017]). Incubations were performed in triplicate, and results were represented with the mean value. The final microsomal protein concentration and incubation times for the different probe reactions are summarized in Table 1 based on previous studies (Lang et al. [2017]; Wang et al. [2019]). The effect of anemarsaponin BII on the activity of CYPs was evaluated in pooled human liver microsomes according to previous studies (Dong et al. [2018]; Wang et al. [2019]). The residual activity of eight CYP isoforms was first detected with 100 μM anemarsaponin BII in HLMs. Next, CYPs of which the activity was inhibited by anemarsaponin BII was incubated with 0, 2.5, 5, 10, 25, 50 and 100 μM anemarsaponin BII to explore the values of half inhibition concentration (IC50). Additionally, 0–50 μM anemarsaponin BII was incubated with various concentration of probe substrates (20–100 μM testosterone for CYP3A4, 10–50 μM dextromethorphan for CYP2D6, and 25–250 μM chlorzoxazone for CYP2E1) to obtain the values of KI.” for “[2017]).”
# [9] = tested on: T8, CYP2C9; format: in vitro ADME; conditions: human, microsomes, 100 μM, pH 7.4
# T8 construct: marker reactions with specific substrates in human liver microsomes (HLMs); from tissue; host or cells: pooled human liver microsomes
# Method: as §1, with “[2017]). Incubations were performed in triplicate, and results were represented with the mean value. The final microsomal protein concentration and incubation times for the different probe reactions are summarized in Table 1 based on previous studies (Lang et al. [2017]; Wang et al. [2019]). The effect of anemarsaponin BII on the activity of CYPs was evaluated in pooled human liver microsomes according to previous studies (Dong et al. [2018]; Wang et al. [2019]). The residual activity of eight CYP isoforms was first detected with 100 μM anemarsaponin BII in HLMs. Next, CYPs of which the activity was inhibited by anemarsaponin BII was incubated with 0, 2.5, 5, 10, 25, 50 and 100 μM anemarsaponin BII to explore the values of half inhibition concentration (IC50). Additionally, 0–50 μM anemarsaponin BII was incubated with various concentration of probe substrates (20–100 μM testosterone for CYP3A4, 10–50 μM dextromethorphan for CYP2D6, and 25–250 μM chlorzoxazone for CYP2E1) to obtain the values of KI.” for “[2017]).”
# [10] = rat, in vivo; cited from earlier work
# [11] = rat, in vivo, 171.61 mg/kg; cited from earlier work
# T1 sequence (P05181 whole entry): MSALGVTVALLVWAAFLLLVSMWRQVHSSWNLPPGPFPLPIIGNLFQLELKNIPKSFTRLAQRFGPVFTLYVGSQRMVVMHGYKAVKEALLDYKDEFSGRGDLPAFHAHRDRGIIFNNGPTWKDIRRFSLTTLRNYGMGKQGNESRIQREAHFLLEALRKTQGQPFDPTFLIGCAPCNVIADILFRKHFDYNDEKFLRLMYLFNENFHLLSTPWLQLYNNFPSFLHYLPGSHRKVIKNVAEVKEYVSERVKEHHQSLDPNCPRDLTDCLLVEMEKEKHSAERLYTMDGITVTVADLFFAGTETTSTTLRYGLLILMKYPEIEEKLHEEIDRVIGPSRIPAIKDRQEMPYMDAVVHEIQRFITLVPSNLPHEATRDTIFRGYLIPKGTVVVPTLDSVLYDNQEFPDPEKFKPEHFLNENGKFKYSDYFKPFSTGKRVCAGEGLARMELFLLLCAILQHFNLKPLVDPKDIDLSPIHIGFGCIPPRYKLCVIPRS
structure (smiles),measurement,setting,value
"CC(CCC1(O)OC2CC3C4CCC5CC(OC6OC(CO)C(O)C(O)C6OC6OC(CO)C(O)C(O)C6O)CCC5(C)C4CCC3(C)C2C1C)COC1OC(CO)C(O)C(O)C1O (stereo not shown) [anemarsaponin BII, Anemarsaponin BII]",IC50,[1],19.3 µM
same,effect of incubation time on inhibition of CYP3A4,[2]; 20 μM anemarsaponin BII,increased with the incubation time
same,kinact,"[2]; human, human liver microsomes, NADPH, 0–50 μM anemarsaponin BII, 0-30 min, non-linear regression",0.000883 s⁻¹
same,effect of incubation time on inhibition of CYP2D6,[3],not affected by the incubation time
same,effect of incubation time on inhibition of CYP2E1,[4],not affected by the incubation time
same,effect on activity of CYP1A2,[5],"only the activity of CYP3A4, 2D6 and 2E1 was significantly inhibited"
same,effect on activity of CYP2A6,[6],"only the activity of CYP3A4, 2D6 and 2E1 was significantly inhibited"
same,effect on activity of CYP2C19,[7],"only the activity of CYP3A4, 2D6 and 2E1 was significantly inhibited"
same,effect on activity of CYP2C8,[8],"only the activity of CYP3A4, 2D6 and 2E1 was significantly inhibited"
same,effect on activity of CYP2C9,[9],"only the activity of CYP3A4, 2D6 and 2E1 was significantly inhibited"
same,half-life (t1/2),[10],2.7 h
same,Cmax,[11],271.22 ng/mL
same,t1/2,[11],3.21 h

# Reference: publication PMC7592892, “Anemarsaponin BII inhibits the activity of CYP3A4, 2D6, and 2E1 with human liver microsomes” (Pharmaceutical Biology, 2020)
